One may read the Kd as the free concentration of one partner at which half of the binding sites on the other are occupied at equilibrium, for simple one-to-one binding.

SMILES strings stand for the structures.

Assay [1] relates to R13.2 (DNA, aptamer) TGTACCGTCTGAGCGATTCGTACTGTGGGCACCAATCGTACCCAATACTTGCGAATCAGCCAGTCAGTGTTAAGGAGTGC
Briefly: fluorescence saturation binding on magnetic beads. The following applies: 100 mM NaCl, 2 mM MgCl2; immobilised compound (biotinylated bromacil on streptavidin beads); 20 mM Tris-HCl; 5 min.

For assay [2] the test system is unchanged. Nature of the assay: competitive elution of labelled DNA from bromacil beads, fluorescence. The following applies: 100 mM NaCl, 2 mM MgCl2, 20 mM Tris-HCl, 0.01% methanol, 1 μM free compound.

As to `CCC(C)n1c(=O)[nH]c(C)c(Br)c1=O` (stereo not shown), in assay [1], the dissociation constant Kd came out at 9.6 ± 7.8 nM. Besides, the binding entry in assay [2] (100 nM DNA, 0.51 ± 0.16 RFU (blank -0.0045)) was “yes”.

As for `CCNc1nc(Cl)nc(NC(C)C)n1`, the binding entry in assay [2] (0.22 ± 0.15 RFU against 0.51 for bromacil) is recorded as “weak”.

Turning to `Cn1ccc(=O)[nH]c1=O`, the binding result in assay [2] (0.28 ± 0.09 RFU against 0.51 for bromacil) is given as “weak”.
